The values below come from publication PMC9500845, “New Anticancer Theobromine Derivative Targeting EGFR^WT and EGFR^T790M: Design, Semi-Synthesis, In Silico, and In Vitro Anticancer Studies” (Molecules, 2022).

The experiment concerns the target EGFR (Homo sapiens, UniProt P00533). Put plainly: in vitro EGFR enzyme inhibition, Human EGFR ELISA kit. The format is biochemical. For orientation: ELISA stands for enzyme-linked immunosorbent assay.

EGFR, sequence (P00533 25-1210): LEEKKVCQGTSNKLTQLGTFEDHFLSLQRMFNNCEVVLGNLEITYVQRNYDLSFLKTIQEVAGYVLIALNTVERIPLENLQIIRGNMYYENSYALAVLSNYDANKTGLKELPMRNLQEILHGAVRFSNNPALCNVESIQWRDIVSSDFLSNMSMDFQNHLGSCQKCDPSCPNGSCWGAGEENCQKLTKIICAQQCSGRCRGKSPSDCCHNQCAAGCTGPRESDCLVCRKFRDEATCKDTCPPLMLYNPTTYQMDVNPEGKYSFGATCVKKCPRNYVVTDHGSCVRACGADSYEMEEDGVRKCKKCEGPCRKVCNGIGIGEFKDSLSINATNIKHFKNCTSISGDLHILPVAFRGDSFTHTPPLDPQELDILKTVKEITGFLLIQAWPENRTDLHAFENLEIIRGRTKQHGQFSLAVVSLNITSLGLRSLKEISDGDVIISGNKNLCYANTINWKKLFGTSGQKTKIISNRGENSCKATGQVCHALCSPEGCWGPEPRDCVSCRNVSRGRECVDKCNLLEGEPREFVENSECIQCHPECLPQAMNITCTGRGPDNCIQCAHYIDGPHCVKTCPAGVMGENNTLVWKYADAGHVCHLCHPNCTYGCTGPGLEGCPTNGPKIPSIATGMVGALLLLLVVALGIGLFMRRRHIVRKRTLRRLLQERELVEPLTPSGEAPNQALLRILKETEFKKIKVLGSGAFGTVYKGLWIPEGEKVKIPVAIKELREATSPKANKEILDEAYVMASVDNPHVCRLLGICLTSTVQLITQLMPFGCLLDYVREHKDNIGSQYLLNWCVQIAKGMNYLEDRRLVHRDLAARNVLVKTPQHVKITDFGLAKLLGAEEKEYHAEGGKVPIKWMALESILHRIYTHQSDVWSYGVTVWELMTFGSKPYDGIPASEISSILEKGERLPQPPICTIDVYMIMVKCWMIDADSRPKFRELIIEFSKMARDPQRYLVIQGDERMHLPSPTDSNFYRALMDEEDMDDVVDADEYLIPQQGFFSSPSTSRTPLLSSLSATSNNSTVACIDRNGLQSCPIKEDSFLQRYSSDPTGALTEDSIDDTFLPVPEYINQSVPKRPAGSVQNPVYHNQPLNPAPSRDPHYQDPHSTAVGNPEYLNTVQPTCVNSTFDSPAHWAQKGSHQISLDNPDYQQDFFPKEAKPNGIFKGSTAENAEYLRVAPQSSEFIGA

In the case of `Cn1cnc2c1c(=O)n(CC(=O)NCc1ccccc1)c(=O)n2C` [XI, N-Benzyl-2-(3,7-dimethyl-2,6-dioxo-2,3,6,7-tetrahydro-1H-purin-1-yl)acetamide], it took 17.2 nM to reach half-maximal inhibition (IC50). In other words, the double-digit nanomolar range.

A word on the IC50: it is the midpoint of a concentration-inhibition curve.
